The target in the experiment is T1, human liver GK (Homo sapiens, UniProt P35557).
T1 construct: GST (glutathione S-transferase) (N); made in house; host or cells: E. coli
T1 sequence (P35557 1-466 isoform P35557-2): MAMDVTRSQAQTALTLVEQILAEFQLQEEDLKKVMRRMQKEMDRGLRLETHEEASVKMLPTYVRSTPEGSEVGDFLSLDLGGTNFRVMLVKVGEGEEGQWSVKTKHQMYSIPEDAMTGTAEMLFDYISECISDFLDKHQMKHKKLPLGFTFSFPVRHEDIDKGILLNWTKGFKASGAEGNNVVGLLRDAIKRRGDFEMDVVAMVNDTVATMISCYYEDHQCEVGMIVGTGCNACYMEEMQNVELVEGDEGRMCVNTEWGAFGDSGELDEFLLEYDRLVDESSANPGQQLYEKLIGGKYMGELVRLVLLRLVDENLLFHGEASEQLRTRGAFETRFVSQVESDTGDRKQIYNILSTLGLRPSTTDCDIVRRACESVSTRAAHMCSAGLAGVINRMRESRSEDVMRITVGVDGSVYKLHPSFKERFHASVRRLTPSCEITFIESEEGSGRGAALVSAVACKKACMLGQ
Nature of the experiment: GK activation test. The following applies: test compound concentration needed to activate 50% of maximum activation ability; 4 mM 14C-labeled glucose, 2 mM ATP, room temperature, 20 minutes. The class given is biochemical. An outline of the steps:
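GST-tagged human liver GK from E. coli (0.24 μg/well) with 4 mM 14C-glucose, 2 mM ATP in Hepes-KOH pH 7.1, KCl, MgCl2, DTT, 1% DMSO, 20 min room temperature. Labeled glucose 6-phosphate captured on anion resin, eluted and counted. EC50 = concentration giving half of maximal activation.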
As to `COc1ccc(/C(=C\CC2CCCO2)c2ccc(C3CC3)c(=O)[nH]2)cc1Cl` (stereo not drawn) [Example 1-50, 6-[(1E)-1-(3-Chloro-4-methoxyphenyl)-3-(tetrahydrofuran-2-yl)prop-1-en-1-yl]-3-cyclopropylpyridin-2(1H)-one], the EC50 – broadly, the concentration that produces a half-maximal response – is 500 to 3000 nM.
The molecule `CCOc1ccc(C(C[C@H]2CCC(=O)N2)c2ccc(C3CC3)c(=O)[nH]2)cc1F` (single isomer, unassigned) [Example 4-354] registered a concentration for a half-maximal effect (EC50) of 500 to 3000 nM.
The figure for `CC(C)(C)c1ccc(/C(=C\[C@H]2CCC(=O)N2)c2ccc(CCC3CCCCC3)c(=O)[nH]2)cc1` [Example 4-195, 6-{(E)-1-(4-tert-Butylphenyl)-2-[(2R)-5-oxopyrrolidin-2-yl]ethenyl}-3-(2-cyclohexylethyl)pyridin-2(1H)-one] is 10 to 500 nM.
As for `CCN(CC)CCCS(=O)(=O)c1ccc(/C(=C\C2CCCC2)c2ccc(C(F)(F)F)c(=O)[nH]2)cc1` [Example 1-41, 6-[(E)-2-Cyclopentyl-1-(4-{[3-(diethylamino)propyl]sulfonyl}phenyl)ethenyl]-3-(trifluoromethyl)pyridin-2(1H)-one], the figure is 500 to 3000 nM; as for `CC(C)(C)c1ccc(/C(=C\CN2C(=O)CCC2=O)c2ccc(Cl)c(=O)[nH]2)cc1` [Example 6-9, 1-[(2E)-3-(4-tert-Butylphenyl)-3-(5-chloro-6-oxo-1,6-dihydropyridin-2-yl)prop-2-en-1-yl]pyrrolidine-2,5-dione], 500 to 3000 nM.
The figure for `O=C1CC[C@H](CC(c2ccc(OC(F)F)cc2)c2ccc(C3CC3)c(=O)[nH]2)N1` (single isomer, unassigned) [Example 4-230] is 3000 to 10000 nM; for `O=C1CC[C@H](CC(c2ccc(O)c(Cl)c2)c2ccc(C3CC3)c(=O)[nH]2)N1` (single isomer, unassigned) [Example 4-250] it is 500 to 3000 nM.
`CC(C)c1ccc(C(CC2CCCC2)c2ccc(S(C)(=O)=O)cc2)[nH]c1=O` (stereo not drawn) [Example 2-12, 6-{2-Cyclopentyl-1-[4-(methylsulfonyl)phenyl]ethyl}-3-(propan-2-yl)pyridin-2(1H)-one] yielded a concentration giving a half-maximal response (EC50) of 500 to 3000 nM.
The figure for `CSc1ccc(/C(=C\C2CCCC2)c2ccc(Cl)c(=O)[nH]2)cc1` [Example 1-1, 3-Chloro-6-{(E)-2-Cyclopentyl-1-[4-(methylsulfanyl)phenyl]ethenyl}pyridin-2(1H)-one] is 500 to 3000 nM.
The molecule `O=C1CC[C@H](CC(c2ccc(O)c(Cl)c2)c2ccc(C3CC3)c(=O)[nH]2)N1` (single isomer, unassigned) [Example 4-251] registered an EC50 of 3000 to 10000 nM.
As for `CCN(CC)CCCOc1ccc(/C(=C\[C@H]2CCC(=O)C2)c2ccc(C3CC3)c(=O)[nH]2)cc1Cl` [Example 1-79, 6-{(E)-1-{3-Chloro-4-[3-(diethylamino)propoxy]phenyl}-2-[(1S)-3-oxocyclopentyl]ethenyl}-3-cyclopropylpyridin-2(1H)-one], the figure is 10 to 500 nM; as for `O=C1CC[C@H](/C=C(\c2ccc(OCCCO)c(Cl)c2)c2ccc(C(F)(F)F)c(=O)[nH]2)C1` [Example 1-81, 6-{(E)-1-[3-Chloro-4-(3-hydroxypropoxy)phenyl]-2-[(1S)-3-oxocyclopentyl]ethenyl}-3-(trifluoromethyl)pyridin-2(1H)-one], 500 to 3000 nM.
The molecule `CC(C)Oc1ccc(/C(=C\[C@H]2CCC(=O)N2)c2ccc(C3CC3)c(=O)[nH]2)cc1Cl` [Example 4-258, 6-{(E)-1-[3-Chloro-4-(propan-2-yloxy)phenyl]-2-[(2R)-5-oxopyrrolidin-2-yl]ethenyl}-3-cyclopropylpyridin-2(1H)-one] showed an EC50 of 10 to 500 nM.
As for `CC(C)c1ccc(C(C[C@H]2CCC(=O)N2)c2ccc(Cl)c(=O)[nH]2)cc1` (single isomer, unassigned) [Example 4-85], the figure is 500 to 3000 nM.
The figure for `O=C1CC[C@H](CC(c2ccc(C(F)(F)F)c(F)c2)c2ccc(C3CC3)c(=O)[nH]2)N1` (single isomer, unassigned) [Example 4-219] is 500 to 3000 nM; for `Cc1ccc(C(CC2CCCCC2)c2ccc(S(C)(=O)=O)cc2)[nH]c1=O` (stereo not drawn) [Example 2-17, 6-{2-Cyclohexyl-1-[4-(methylsulfonyl)phenyl]ethyl}-3-methylpyridin-2(1H)-one] it is 500 to 3000 nM.
`CS(=O)(=O)c1ccc(/C(=C\[C@H]2CCC(=O)C2)c2ccc(C3CC3)c(=O)[nH]2)cc1` [Example 1-108, 3-Cyclopropyl-6-{(E)-1-[4-(methylsulfonyl)phenyl]-2-[(1S)-3-oxocyclopentyl]ethenyl}pyridin-2(1H)-one] had an EC50 of 10 to 500 nM.
Turning to `CSc1ccc(/C(=C\C2CN(C(C)=O)C2)c2ccc(C3CC3)c(=O)[nH]2)cc1` [Example 4-44, 6-{(E)-2-(1-Acetylazetidin-3-yl)-1-[4-(methylsulfanyl)phenyl]ethenyl}-3-cyclopropylpyridin-2(1H)-one], the half-maximal effective concentration (EC50) was in the range of 500 to 3000 nM.
The figure for `CC(=O)NCC/C=C(\c1ccc(S(C)(=O)=O)cc1)c1ccc(C2CC2)c(=O)[nH]1` [Example 1-95, N-{(3E)-4-(5-Cyclopropyl-6-oxo-1,6-dihydropyridin-2-yl)-4-[4-(methylsulfonyl)phenyl]but-3-en-1-yl}acetamide] is 3000 to 10000 nM.
The figure for `CCc1ccc(/C(=C/[C@H]2CCC(=O)C2)c2ccc(S(C)(=O)=O)c(Cl)c2)[nH]c1=O` [Example 1-70, 6-{(E)-1-[3-Chloro-4-(methylsulfonyl)phenyl]-2-[(1S)-3-oxocyclopentyl]ethenyl}-3-ethylpyridin-2(1H)-one] is 10 to 500 nM.
As for `O=C1CC[C@H](/C=C(/c2ccc(Cl)c(=O)[nH]2)c2cccc3ccccc23)N1` [Example 4-150, 3-Chloro-6-{(E)-1-(naphthalen-1-yl)-2-[(2R)-5-oxopyrrolidin-2-yl]ethenyl}pyridin-2(1H)-one], the figure is 3000 to 10000 nM; as for `CN1CCOc2cc(/C(=C\[C@H]3CCC(=O)N3)c3ccc(Cl)c(=O)[nH]3)ccc21` [Example 4-79, 3-Chloro-6-{(E)-1-(4-methyl-3,4-dihydro-2H-1,4-benzoxazin-7-yl)-2-[(2R)-5-oxopyrrolidin-2-yl]ethenyl}pyridin-2(1H)-one], 500 to 3000 nM; as for `CC(C)(C)c1ccc(/C(=C\[C@H]2CCC(=O)N2)c2ccc(C(F)(F)F)c(=O)[nH]2)cc1` [Example 4-74, 6-{(E)-1-(4-tert-Butylphenyl)-2-[(2R)-5-oxopyrrolidin-2-yl]ethenyl}-3-(trifluoromethyl)pyridin-2(1H)-one], 10 to 500 nM.
In turn, `Cc1ccc(C(C[C@H]2CCC(=O)N2)c2ccc(Cl)c(=O)[nH]2)cc1Cl` (single isomer, unassigned) [Example 4-311] had an EC50 of 3000 to 10000 nM.
As for `CCSc1ccc(/C(=C\[C@H]2CCC(=O)N2)c2ccc(Cl)c(=O)[nH]2)cc1Cl` [Example 4-27, 3-Chloro-6-{(E)-1-[3-chloro-4-(ethylsulfanyl)phenyl]-2-[(2R)-5-oxopyrrolidin-2-yl]ethenyl}pyridin-2(1H)-one], the figure is 10 to 500 nM; as for `Cc1cc(/C(=C\[C@H]2CCC(=O)N2)c2ccc(C3CC3)c(=O)[nH]2)ccc1SC1CC1` [Example 4-12, 3-Cyclopropyl-6-{(E)-1-[4-(cyclopropylsulfanyl)-3-methylphenyl]-2-[(2R)-5-oxopyrrolidin-2-yl]ethenyl}pyridin-2(1H)-one], 10 to 500 nM.
The figure for `CC(C)(C)c1ccc(/C(=C\Cc2ccccc2)c2ccc(Cl)c(=O)[nH]2)cc1` [Example 6-28, 6-[(1E)-1-(4-tert-Butylphenyl)-3-phenylprop-1-en-1-yl]-3-chloropyridin-2(1H)-one] is 500 to 3000 nM.
Consider `CCc1ccc(/C(=C/C2CCCC2)c2ccc(SCCCN(CC)CC)c(Cl)c2)[nH]c1=O` [Example 1-26, 6-[(E)-1-(3-Chloro-4-{[3-(diethylamino)propyl]sulfanyl}phenyl)-2-cyclopentylethenyl]-3-ethylpyridin-2(1H)-one], for which the EC50 was in the range of 10 to 500 nM.
In turn, `Cc1ccc(/C(=C\[C@H]2CCC(=O)N2)c2ccc(C3CC3)c(=O)[nH]2)cc1Cl` [Example 4-106, 6-{(E)-1-(3-Chloro-4-methylphenyl)-2-[(2R)-5-oxopyrrolidin-2-yl]ethenyl}-3-cyclopropylpyridin-2(1H)-one] yielded an EC50 of 10 to 500 nM.
The molecule `CC(C)(C)c1ccc(/C(=C\Cc2nc(=O)o[nH]2)c2ccc(Cl)c(=O)[nH]2)cc1` [Example 6-23, 6-[(1E)-1-(4-tert-Butylphenyl)-3-(5-oxo-2,5-dihydro-1,2,4-oxadiazol-3-yl)prop-1-en-1-yl]-3-chloropyridin-2(1H)-one] yielded a concentration for a half-maximal effect (EC50) of 3000 to 10000 nM.
In turn, `CC(C)(C)c1ccc(/C(=C\CN2CCCCCC2=O)c2ccc(Cl)c(=O)[nH]2)cc1` [Example 6-6, 1-[(2E)-3-(4-tert-Butylphenyl)-3-(5-chloro-6-oxo-1,6-dihydropyridin-2-yl)prop-2-en-1-yl]azepan-2-one] returned an EC50 of 500 to 3000 nM.
As for `O=C1CC[C@H](/C=C(\c2ccc(F)nc2)c2ccc(C3CC3)c(=O)[nH]2)N1` [Example 4-121, 3-Cyclopropyl-6-{(E)-1-(6-fluoropyridin-3-yl)-2-[(2R)-5-oxopyrrolidin-2-yl]ethenyl}pyridin-2(1H)-one], the figure is 3000 to 10000 nM; as for `CSc1ccc(C(CC2CCC(=O)CC2)c2ccc(C)c(=O)[nH]2)cc1` (stereo not drawn) [Example 2-20, 3-Methyl-6-{1-[4-(methylsulfanyl)phenyl]-2-(4-oxocyclohexyl)ethyl}pyridin-2(1H)-one], 500 to 3000 nM.

Source of the values: US8822503B2, “2-pyridone compounds” (Taisho Pharmaceutical Co., Ltd, priority 2009, dated 2014).
